Data published in patent US7026281B1, “Antagonistic analogs of GH-RH inhibiting IGF-I and -II” (The Administrators of the Tulane Educational Fund, priority 1998, dated 2006).
Marks after values point to notes of the source that are not given here. Square brackets hold non-standard residues; d marks the D form. Peptide text beside a SMILES is read from it. * marks the point of attachment. Phe(4-Cl) = N[C@@H](Cc1ccc(Cl)cc1)C(=O)O; hArg = N=C(N)NCCCC[C@H](N)C(=O)O; Nle = CCCC[C@H](N)C(=O)O; Abu = CC[C@H](N)C(=O)O; PhAc = O=C(Cc1ccccc1)*

Tests used:
[1] = tested on: hGH-RH(1–29)NH2 induced GH release; experiment: Inhibition of GH release in superfused rat pituitary system; format: cell-based; settings: antagonist 30 nM; for Inhibition of GH release (%) 30 min: 1 nM hGH-RH(1–29)NH2 30 min later; for Inhibition of GH release (%) 60 min: 1 nM hGH-RH(1–29)NH2 60 min later; for Inhibition of GH release (%) 90 min: 1 nM hGH-RH(1–29)NH2 90 min later; for Inhibition of GH release (%) 120 min: 1 nM hGH-RH(1–29)NH2 120 min later; for Inhibition of GH release (%) 0 min: 1 nM hGH-RH(1–29)NH2 at 0 min
In short: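 Superfused rat pituitary cells preincubated 9 min with peptide, then challenged for 3 min with 1 nM hGH-RH(1–29)NH2 at 0, 30, 60, 90 and 120 min. Rat GH measured by double-antibody RIA; net integral GH responses expressed as percent of the original 1 nM GH-RH-induced response.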

[2] = molecular target: T1, rat pituitary GH-RH receptors (Rattus norvegicus, UniProt Q02644); experiment: GH-RH radioreceptor binding assay, rat anterior pituitary membrane homogenates; settings: for Ki: competition with [His1,125I-Tyr10,Nle27]hGH-RH(1–32)NH2; for R.A. (relative affinity compared to Standard antagonist): ratio of Ki values
T1 construct: from tissue; host or cells: anterior pituitary of male Sprague-Dawley rats, crude membrane homogenates
T1 sequence (Q02644 23-464): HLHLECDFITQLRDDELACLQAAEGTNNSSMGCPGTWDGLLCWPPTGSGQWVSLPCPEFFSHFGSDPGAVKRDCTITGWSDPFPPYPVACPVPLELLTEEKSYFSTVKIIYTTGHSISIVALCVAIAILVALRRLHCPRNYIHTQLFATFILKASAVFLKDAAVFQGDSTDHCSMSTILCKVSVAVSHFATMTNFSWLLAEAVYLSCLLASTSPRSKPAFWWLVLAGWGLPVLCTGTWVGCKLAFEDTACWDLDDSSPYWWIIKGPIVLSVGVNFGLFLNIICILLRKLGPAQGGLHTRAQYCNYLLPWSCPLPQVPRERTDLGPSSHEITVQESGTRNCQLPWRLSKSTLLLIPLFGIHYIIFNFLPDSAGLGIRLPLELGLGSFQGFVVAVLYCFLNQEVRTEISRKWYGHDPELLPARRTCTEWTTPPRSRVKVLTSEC
In short: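 Antagonists competed with [His^1,^125I-Tyr^10,Nle^27]hGH-RH(1–32)NH2 for binding to crude anterior pituitary membranes from male Sprague-Dawley rats, with γ-counting of the pellet. Ki came from Munson–Rodbard analysis. Relative affinity is the Ki of the test antagonist divided by the Ki of standard [Ac-Tyr^1,D-Arg^2]hGH-RH(1–29)NH2.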

[3] = tested on: GH release stimulated by hGH-RH(1–29)NH2; experiment: In vivo inhibition of serum GH response in rats; design: species or system rat; settings: for Inhibition of the GH release stimulated by hGH-RH(1–29)NH2 (in words): 80 μg/kg i.v., rats
Experimental: GH-RH antagonistic effect of the analogs was tested on young male Sprague-Dawley rats (200–250 g). In each experiment, 5 groups of 7 animals each were used. The compounds (80 μg/kg) and GH-RH(1–29)NH2 (3 μg/kg) were dissolved in 5.5% mannitol and given intravenously to the jugular vein of the rats under Nembutal anesthesia. The time elapsed between the administrations of the antagonist and GH-RH varied between groups, according to the following schedule. The first group of animals received GH-RH injection 5 min after the administration of the antagonist; for the second, third and fourth group of animals, the time interval elapsed between the injection of the antagonist and that of GH-RH was 15, 30, and 60 min, respectively. The control group was first injected with the solvent alone instead of the antagonist, followed by a GH-RH injection 5 min later.
0.4 mL blood samples were taken for GH RIA before the administration of the antagonist (“blood0”), and 5 min after the injection of GH-RH (“blood1”). The GH response in each group was calculated as rGH=(GHblood1/GHblood0), mean±S.E.M. of the individual differences. Relative inhibition of GH response (%) in each group treated was calculated as […].

[4] = tested on: HT-29 human colon cancers; experiment: HT-29 human colon cancer xenografts in nude mice; format: in vivo; settings: 20 μg daily sc., 6 weeks; for Final tumor volume (mm^3) / Tumor weight: nude mice
Experimental: HT-29 human colon cancers were transplanted sc. into male nude mice. 19 days after transplantation, the mice were divided into groups of 10 animals each, and the treatment was started. The mice received single daily injections of various GH-RH antagonists sc. at 20 μg dose per day for 6 weeks. Tumors were measured regularly, and tumor volume was calculated. The mice were sacrificed at the end of experiment and tumor weights were measured.

[5] = tested on: mammary (MDA-MB-468, ZR-75-1), prostatic (PC-3 and DU-145), and pancreatic (MiaPaCa-2, SW-1990 and Capan-2) cancer cell lines; settings: MDA-MB-468, ZR-75-1, PC-3, DU-145, MiaPaCa-2, SW-1990, Capan-2; cited from earlier work
IGF-II = settings: same cancer cell lines in vitro; cited from earlier work
[6] = antagonist 80 μg/kg i.v. 5 min before GH-RH
[7] = antagonist 80 μg/kg i.v. 15 min before GH-RH
[8] = antagonist 80 μg/kg i.v. 15 min before GH-RH 3 μg/kg
[9] = antagonist 80 μg/kg i.v. 30 min before GH-RH
[10] = antagonist 80 μg/kg i.v. 30 min before GH-RH 3 μg/kg
[11] = antagonist 80 μg/kg i.v. 60 min before GH-RH
[12] = antagonist 80 μg/kg i.v. 60 min before GH-RH 3 μg/kg
[13] = rGH=GHblood1/GHblood0, antagonist 80 μg/kg i.v. 5 min before GH-RH 3 μg/kg

Molecule | Inhibition of GH release (%) 30 min [1] [%] | Inhibition of GH release (%) 60 min [1] [%] | Inhibition of GH release (%) 90 min [1] [%] | Inhibition of GH release (%) 120 min [1] [%] | Inhibition of GH release (%) 0 min [1] [%] | Ki [2] [nM] | R.A. (relative affinity compared to Standard antagonist) [2] | Inhibition of the GH release stimulated by hGH-RH(1–29)NH2 (in words) [3] | Relative inhibition % of GH response [3, 6] [%] | Relative inhibition % of GH response [3, 7] [%] | GH response mean ± S.E.M. [3, 8] | Relative inhibition % of GH response [3, 9] [%] | GH response mean ± S.E.M. [3, 10] | Relative inhibition % of GH response [3, 11] [%] | GH response mean ± S.E.M. [3, 12] | GH response mean ± S.E.M. [3, 13] | Inhibitory effect on HT-29 human colon cancers (in words) [4] | Final tumor volume (mm^3) [4] | Tumor weight [4] [mg] | further results
CCCC[C@H](NC(=O)[C@@H](NC(=O)[C@H](CC(=O)O)NC(=O)[C@H](CCC(N)=O)NC(=O)[C@H](CC(C)C)NC(=O)[C@H](CC(C)C)NC(=O)[C@H](CCCCN)NC(=O)[C@H](CCCNC(=N)N)NC(=O)[C@H](C)NC(=O)[C@H](CO)NC(=O)[C@H](CC(C)C)NC(=O)[C@H](CCC(N)=O)NC(=O)[C@H](CC)NC(=O)[C@H](CC(C)C)NC(=O)[C@@H](NC(=O)[C@H](CCCCN)NC(=O)[C@H](CCCNC(=N)N)NC(=O)[C@H](Cc1ccc(O)cc1)NC(=O)[C@H](CCCNC(=N)N)NC(=O)[C@H](CC(N)=O)NC(=O)[C@@H](NC(=O)[C@H](Cc1ccc(Cl)cc1)NC(=O)[C@@H](NC(=O)[C@H](C)NC(=O)[C@H](CC(=O)O)NC(=O)[C@@H](CCCNC(=N)N)NC(=O)[C@H](Cc1ccc(O)cc1)NC(=O)Cc1ccccc1)[C@@H](C)CC)[C@@H](C)O)C(C)C)[C@@H](C)CC)C(=O)N[C@@H](CO)C(=O)N[C@H](CCCNC(=N)N)C(N)=O [Peptide 9, [PhAc^0, D-Arg^2, Phe(pCl)^6, Arg^9, Abu^15, Nle^27, D-Arg^29]hGH-RH(1–29)NH2] (PhAc-Y[dR]DAI[Phe(4-Cl)]TNRYRKVL[Abu]QLSARKLLQDI[Nle]S[dR]-NH2) | 87 | 79 | 72 | 59 | 91 | 0.058 | 51 | strong and long-lasting inhibition | 75 | 59 | 3.85 ± 0.50 | 67 | 3.34 ± 0.30 | 10 | 7.32 ± 1.16 | 2.75 ± 0.75 | smaller but still significant inhibition | 1194 ± 506* mm^3 | 1383 ± 576 | –
CCCC[C@H](NC(=O)[C@@H](NC(=O)[C@H](CC(=O)O)NC(=O)[C@H](CCC(N)=O)NC(=O)[C@H](CC(C)C)NC(=O)[C@H](CC(C)C)NC(=O)[C@H](CCCCN)NC(=O)[C@H](CCCNC(=N)N)NC(=O)[C@H](C)NC(=O)[C@H](CO)NC(=O)[C@H](CC(C)C)NC(=O)[C@H](CCC(N)=O)NC(=O)[C@H](CC)NC(=O)[C@H](CC(C)C)NC(=O)[C@@H](NC(=O)[C@H](CCCCN)NC(=O)[C@H](CCCNC(=N)N)NC(=O)[C@H](Cc1ccc(O)cc1)NC(=O)[C@H](CO)NC(=O)[C@H](CC(N)=O)NC(=O)[C@@H](NC(=O)[C@H](Cc1ccc(Cl)cc1)NC(=O)[C@@H](NC(=O)[C@H](C)NC(=O)[C@H](CC(=O)O)NC(=O)[C@@H](CCCNC(=N)N)NC(=O)[C@H](Cc1ccc(O)cc1)NC(=O)Cc1ccccc1)[C@@H](C)CC)[C@@H](C)O)C(C)C)[C@@H](C)CC)C(=O)N[C@H](CCCNC(=N)N)C(=O)N[C@@H](CCCCNC(=N)N)C(N)=O [Peptide 11, [PhAc^0, D-Arg^2, Phe(pCl)^6, Abu^15, Nle^27, D-Arg^28, Har^29]hGH-RH(1–29)NH2] (PhAc-Y[dR]DAI[Phe(4-Cl)]TNSYRKVL[Abu]QLSARKLLQDI[Nle][dR][hArg]-NH2) | 89 | 80 | 56 | 42 | 96 | 0.071 | 41 | strong and long-lasting inhibition | 84 | 50 | 13.64 ± 1.41 | 40 | 16.04 ± 4.36 | 38 | 16.61 ± 6.02 | 5.15 ± 1.11 | only little nonsignificant effect | 1663 ± 610 mm^3 | 1849 ± 681 | –
[Ibu^0, Tyr^1, D-Arg^2, Abu^15, Nle^27]hGH-RH(1–28) Agm [MZ-4-71, reference compound] | – | – | – | – | – | – | – | – | – | – | – | – | – | – | – | – | only little nonsignificant effect | 1953 ± 400 mm^3 | 2189 ± 458 | Rate of proliferation of cancer cell lines in vitro [5]: significantly inhibited; Expression of IGF-II mRNA in the cells and concentration of IGF-II secreted into the culture medium (IGF-II): reduced
